Measured values reported in PubChem BioAssay (NCI).
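Test compounds were applied to cells in 96-well plates for 48 hours at 5 doses. GI50: concentration for 50% inhibition of growth. TGI is the concentration that stops growth completely.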

Assays:
Assay in all cases: NCI anticancer screen, dose series, 48 h
[1] = test system: HS 578T breast
[2] = test system: MDA-MB-231 breast
[3] = test system: RPMI-8226 leukemia
[4] = test system: RXF 393 renal
[5] = test system: OVCAR-4 ovarian
[6] = test system: MCF7 breast
[7] = test system: SN12C renal
[8] = test system: UACC-62 melanoma
[9] = test system: HCT-116 colon
[10] = test system: M14 melanoma

SMILES | GI50 [1] | TGI [1] | GI50 [2] | TGI [2] | GI50 [3] | TGI [3] | GI50 [4] | TGI [4] | GI50 [5] | TGI [5] | GI50 [6] | TGI [6] | GI50 [7] | TGI [7] | GI50 [8] | TGI [8] | GI50 [9] | TGI [9] | GI50 [10] | TGI [10]
COc1ccc2nc3ccccc3c(NCc3ccccc3)c2c1 | 2.19 µM | 5.57 µM | 1.85 µM | 4.38 µM | 1.93 µM | 4.49 µM | 1.53 µM | 3.13 µM | 2.37 µM | 7.58 µM | 2.01 µM | 4.89 µM | 2.71 µM | 10.5 µM | 2.29 µM | 6.05 µM | 1.72 µM | 5.25 µM | 1.73 µM | 3.58 µM
O=C(Nc1ccc(Cl)cc1)N1CCN(c2ccc3nncn3n2)CC1 | > 100 µM | > 100 µM | 63.2 µM | > 100 µM | 29.7 µM | > 100 µM | > 100 µM | > 100 µM | 51.6 µM | > 100 µM | 35.3 µM | > 100 µM | 72.4 µM | > 100 µM | 21.7 µM | > 100 µM | 64 µM | > 100 µM | 56.2 µM | > 100 µM
C1=C\CCCCN2CC[C@H]3[C@H](CCCC/C=C\CCCN4C[C@@H](CCCCC/1)C[C@@H]3C4)C2 | 5.22 µM | 15.4 µM | 6.03 µM | 19.1 µM | 2.06 µM | 6.16 µM | 2.72 µM | 8.17 µM | 8.84 µM | 27.5 µM | 3.58 µM | 15.1 µM | 11.6 µM | 23.9 µM | 13.2 µM | 25.9 µM | 4.33 µM | 20.8 µM | 1.77 µM | 3.44 µM
Cc1cn(C2CC(O)C(COC(N)=O)O2)c(=O)[nH]c1=O (stereo not given) |  | > 100 µM |  | > 100 µM |  | > 100 µM |  | > 100 µM |  | > 100 µM |  | > 100 µM |  | > 100 µM |  | > 100 µM |  | > 100 µM |  | > 100 µM
C/C(=N\NC(=S)N1CCN(c2ccccn2)CC1)c1cccc2cccnc12 |  | > 100 µM |  | > 64.6 µM |  | 20.2 µM |  | > 100 µM |  | > 100 µM |  | > 100 µM |  | 34.8 µM |  | 27.8 µM |  | 6.71 µM |  | > 47.4 µM
Nc1ncnc2c1ncn2CCCCC(=O)O |  | > 100 µM |  | > 100 µM |  | > 100 µM |  | > 100 µM |  | > 100 µM |  | > 100 µM |  | > 100 µM |  | > 100 µM |  | > 100 µM |  | > 100 µM
c1ccc(/C(=N\Nc2nc3ccccc3s2)c2ccccn2)cc1 |  | > 88.9 µM |  | > 100 µM |  | 27.9 µM |  | 23.3 µM |  | > 100 µM |  | > 72.5 µM |  | 39.8 µM |  | 27.5 µM |  | 9.16 µM |  | 22.6 µM
CCSCCCC(=O)O |  | > 100 µM |  | > 100 µM |  | > 100 µM |  | > 100 µM |  | > 100 µM |  | > 100 µM |  | > 100 µM |  | > 100 µM |  | > 100 µM |  | > 100 µM
